Assay results published in patent US10342796B2, “Acrylanilide derivative, preparation method, and applications thereof in pharmacy” (Ancureall Pharmaceutical (Shanghai) Co., Ltd., priority 2015, dated 2019).

Experiments:
Test in all cases: Growth inhibition GI50 in vitro (CCK8/MTT, 72 h)
Assay type in all cases: cell-based, human
[1] = system: N87 (HER2 Amp); settings: Homo sapiens; HER2 positive cell line; range of GI50; read-out: GI50 N87
[2] = system: AU565 (Her2 amp); settings: Homo sapiens, AU565; HER2 positive cell line; range of GI50; read-out: GI50 AU-565
[3] = system: PC-9ER (EGFR delE746-A750/T790M); settings: Homo sapiens, PC-9/ER; EGFR mutant cell line; range of GI50; read-out: GI50 PC9ER
[4] = system: PC-9 (EGFR dE746-A750); settings: Homo sapiens; EGFR mutant cell line; range of GI50; read-out: GI50 PC-9
[5] = system: HCC827 (EGFR dE746-A750); settings: Homo sapiens, HCC827; EGFR mutant cell line; range of GI50; read-out: GI50 HCC827
[6] = system: H1975 (EGFR L858R/T790M); settings: Homo sapiens, NCI-H1975; EGFR mutant cell line; range of GI50; read-out: GI50 H1975
[7] = system: A431 (EGFR WT, amplification and high expression); settings: Homo sapiens, A-431; EGFR wild type cell line; range of GI50; read-out: GI50 A431
[8] = system: H460 (EGFR wt, Kras G61H); settings: Homo sapiens, NCI-H460; EGFR wild type cell line; range of GI50; read-out: GI50 H460
[9] = system: H1299 (EGFR wt, Nras Q61K); settings: Homo sapiens, NCI-H1299; EGFR wild type cell line; range of GI50; read-out: GI50 H1299
[10] = system: A549 (EGFR WT); settings: Homo sapiens, A549; EGFR wild type cell line; range of GI50; read-out: GI50 A549
[11] = system: SK-BR-3 (Her2 amp); settings: Homo sapiens, SK-BR-3; HER2 positive cell line; range of GI50; read-out: GI50 SK-BR-3
Experimental: Human lung adenocarcinoma cell line Calu-3 (ATCC) was cultured with 1×MEM complete medium (10% FBS, 1% double-antibiotics, 1% NEAA (Gibco), 2 mM glutamine and 1 mM of sodium pyruvate). Human breast cancer cell line SK-BR-3 was cultured with McCOY'S5A complete medium (10% FBS). Human colon cancer cell line SNU1040 (HER2 V777M positive) (ATCC) and human bronchoalveolar adenocarcinoma cell line NCI-H1781 (expressing HER2 exon 20 G776VC mutation) (ATCC) were cultured with 1×RPMI1640 complete medium (10% FBS), respectively.
The suspension cells were collected by centrifugation. The supernatant was discard and the cell pellet was resuspended and counted. Different cell concentrations (5˜10×10^4 cells/mL) were prepared according to the growth cycle of each cell line and then seeded on a 96-well plate (Corning), 100 μL/well. The cells were incubated over night at 37° C., 5% CO2. The compounds were added to the cells on the second day with 2 wells in parallel. The final concentration of organic solvent shall not exceed 1%. The cells were continually incubated for 72 h, and then subjected to MTT assay.
The present compounds and the reference compounds were dissolved with DMSO (Sigma), respectively. […] The storage concentration of compounds was 10 mM and kept at −20° C. They were diluted by 2 times or 10 times with serial dilution before using.
Dojindo CCK8 reagent kit was used as MTT assay. […] FC meter was used as microplate reader.
Adherent cell culture medium was discard and immediately replaced with fresh prepared medium which contains 10% CCK8 reagent (100 μL/well). For the suspension cells, CCK8 was directly added to 10% of the final concentration. The cells were continually incubated for 1˜4 h. When the color of control wells turned to dark yellow, the absorption value was measured at OD450 nm. The cell growth rate was calculated according to the following formula: cell growth rate (%)=100*(T−T0)/(C−T0), T=optical density of drug treatment cell well—optical density of blank control well; T0=optical density of cell well before drug treatment—optical density of blank control well; C=optical density of cell well of solvent control group—optical density of blank control well. […] The experiment was independently repeated 1˜3 times, and subject to biological statistical analysis.

| SMILES | GI50 [1] [nM] | GI50 [2] [nM] | GI50 [3] [nM] | GI50 [4] [nM] | GI50 [5] [nM] | GI50 [6] [nM] | GI50 [7] [nM] | GI50 [8] [nM] | GI50 [9] [nM] | GI50 [10] [nM] | GI50 [11] [nM] |
| --- | --- | --- | --- | --- | --- | --- | --- | --- | --- | --- | --- |
| C=CC(=O)Nc1cc(Nc2ncnc(Nc3ccc(F)c(Cl)c3)n2)c(OC)cc1N(C)CCN(C)C [Compound 109, N-(5-(4-(3-chloro-4-fluoro-phenylamino)-[1,3,5]triazin-2-ylamino)-2-((2-dimethylamino-ethyl)-methyl-amino)-4-methoxyl-phenyl)-acrylamide] | 10 to 100 | 10 to 100 | 10 to 100 | 10 to 100 | 10 to 100 | 10 to 100 | 100 to 1000 | > 1000 | > 1000 | > 1000 | 10 to 100 |
| C=CC(=O)Nc1cc(Nc2ncnc(Nc3cccc(Cl)c3F)n2)c(OC)cc1N(C)CCN(C)C [Compound 110, N-(5-(4-(3-chloro-2-fluoro-phenylamino)-[1,3,5]triazin-2-ylamino)-2-((2-dimethylamino-ethyl)-methyl-amino)-4-methoxyl-phenyl)-acrylamide] | < 10 | 10 to 100 | < 10 | < 10 | < 10 | 10 to 100 | 100 to 1000 | > 1000 | > 1000 | > 1000 | 10 to 100 |
| C=CC(=O)Nc1cc(Nc2ncnc(Nc3cccc(C(F)(F)F)c3)n2)c(OC)cc1N(C)CCN(C)C [Compound 113, N-(5-(4-(3-trifluoromethyl-phenylamino)-[1,3,5]triazin-2-ylamino)-2-((2-dimethylamino-ethyl)-methyl-amino)-4-methoxyl-phenyl)-acrylamide] | 10 to 100 | 10 to 100 | < 10 | < 10 | < 10 | 10 to 100 | 100 to 1000 | > 1000 | > 1000 | > 1000 | 100 to 1000 |
| C=CC(=O)Nc1cc(Nc2cc(Nc3cccc(Br)c3)ncn2)c(OC)cc1N(C)CCN(C)C [Compound 133, N-(5-(6-(3-bromophenylamino)-pyrimidin-4-ylamino)-2-((2-dimethylamino-ethyl)-methyl-amino)-4-methoxyl-phenyl)-acrylamide] | < 10 | < 10 | < 10 | < 10 | < 10 | < 10 | 10 to 100 | > 1000 | > 1000 | > 1000 | < 10 |
| C=CC(=O)Nc1cc(Nc2cc(Nc3cccc(C(F)(F)F)c3)ncn2)c(OC)cc1N(C)CCN(C)C [Compound 134] | 10 to 100 | 10 to 100 | 10 to 100 | < 10 | < 10 | 10 to 100 | 100 to 1000 | > 1000 | > 1000 | > 1000 | 10 to 100 |
| C#Cc1cccc(Nc2cc(Nc3cc(NC(=O)C=C)c(N(C)CCN(C)C)cc3OC)ncn2)c1 [Compound 135, N-(5-(6-(3-alkynyl-phenylamino)-pyrimidin-4-ylamino)-2-((2-dimethylamino-ethyl)-methyl-amino)-4-methoxyl-phenyl)-acrylamide] | 10 to 100 | < 10 | < 10 | < 10 | < 10 | < 10 | 10 to 100 | > 1000 | > 1000 | > 1000 | < 10 |
| C=CC(=O)Nc1cc(Nc2cc(Nc3cc(F)cc(Br)c3)ncn2)c(OC)cc1N(C)CCN(C)C [Compound 139, N-(5-(6-(3-bromo-5-fluoro-phenylamino)-pyrimidin-4-ylamino)-2-((2-dimethylamino-ethyl)-methyl-amino)-4-methoxyl-phenyl)-acrylamide] | < 10 | < 10 | < 10 | < 10 | < 10 | 10 to 100 | 100 to 1000 | > 1000 | > 1000 | > 1000 | < 10 |
| C=CC(=O)Nc1cc(Nc2cc(Nc3ccc(F)c(Cl)c3)ncn2)c(OC)cc1N1CCC(N2CCOCC2)CC1 [Compound 143, N-(5-(6-(3-chloro-4-fluoro-phenylamino)-pyrimidin-4-ylamino)-4-methoxyl-2-(4-morpholin-4-yl-piperidin-1-yl)-phenyl)-acrylamide] | < 10 | < 10 | < 10 | < 10 | < 10 | < 10 | 10 to 100 | > 1000 | > 1000 | > 1000 | < 10 |
| C=CC(=O)Nc1cc(Nc2cc(Nc3ccc(F)c(Cl)c3)ncn2)c(OC)cc1N1CCCN(C)CC1 [Compound 144, N-(5-(6-(3-chloro-4-fluoro-phenylamino)-pyrimidin-4-ylamino)-2-(4-methyl-[1,4]diazepin-1-yl)-4-methoxyl-phenyl)-acrylamide] | < 10 | < 10 | < 10 | < 10 | < 10 | < 10 | 10 to 100 | > 1000 | > 1000 | > 1000 | < 10 |
| C=CC(=O)Nc1cc(Nc2cc(Nc3ccc(F)c(Cl)c3)ncn2)c(OC)cc1N1CCN(C)CC1 [Compound 145, N-(5-(6-(3-chloro-4-fluoro-phenylamino)-pyrimidin-4-ylamino)-4-methoxyl-2-(4-methyl-piperazin-1-yl)-phenyl)-acrylamide] | < 10 | 10 to 100 | < 10 | < 10 | < 10 | 10 to 100 | 10 to 100 | > 1000 | > 1000 | > 1000 | 10 to 100 |
| C=CC(=O)Nc1cc(Nc2cc(Nc3ccc(F)c(Cl)c3)ncn2)c(OC)cc1OCCN(C)C [Compound 148, N-(5-(6-(3-chloro-4-fluoro-phenylamino)-pyrimidin-4-ylamino)-2-(2-dimethylamino-ethoxyl)-4-methoxyl-phenyl)-acrylamide] | 10 to 100 | < 10 | < 10 | < 10 | < 10 | < 10 | 10 to 100 | > 1000 | > 1000 | > 1000 | < 10 |
| C=CC(=O)Nc1cc(Nc2cc(Nc3ccc(F)c(Cl)c3)ncn2)c(OC)cc1OCCN1CCN(C)CC1 [Compound 150, N-(5-(6-(3-chloro-4-fluoro-phenylamino)-pyrimidin-4-ylamino)-2-(2-(4-methyl-piperazin-lyl)-ethoxyl)-4-methoxyl-phenyl)-acrylamide] | 10 to 100 | 10 to 100 | < 10 | < 10 | < 10 | < 10 | 10 to 100 | > 1000 | > 1000 | > 1000 | < 10 |
